The assay has as its target T1, Geranylgeranyl pyrophosphate synthase (Homo sapiens, UniProt O95749).
T1 sequence (O95749 whole entry): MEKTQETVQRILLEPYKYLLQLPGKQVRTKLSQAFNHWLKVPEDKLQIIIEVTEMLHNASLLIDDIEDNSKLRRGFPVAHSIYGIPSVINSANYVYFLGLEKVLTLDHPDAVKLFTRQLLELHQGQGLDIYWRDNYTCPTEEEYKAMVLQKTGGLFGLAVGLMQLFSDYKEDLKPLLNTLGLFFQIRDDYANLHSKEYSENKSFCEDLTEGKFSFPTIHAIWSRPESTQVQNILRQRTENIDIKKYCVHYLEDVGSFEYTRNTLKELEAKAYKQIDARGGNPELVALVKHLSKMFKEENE
Kind of assay: GGPP Synthase Inhibition Assay. To be noted: pH 7; 37 °C. The method, then:
The inhibitory activity of each test compound was evaluated by monitoring the formation of [14C]GGPP from FPP, using [14C]IPP as the substrate. To confirm the formation of radioactive products, one-dimensional thin-layer chromatography (TLC), with autoradiographic detection of [14C]FPP/[14C]GGPP, was used.

The term IC50 denotes the concentration that gives 50% inhibition.

For the compound `CCCCCCCCc1ccc[n+](CC(O)(P(=O)([O-])O)P(=O)(O)O)c1` (configuration not stated) [1-(2-hydrogenphosphonato-2-hydroxy-2-phosphonoethyl)-3-octylpyridin-1-ium], the IC50 is 1380 nM. The figure for `CCCCCCCCCC(O)(P(=O)(O)O)P(=O)(O)O` [(1-hydroxy-1-phosphonodecyl)phosphonic acid] is 890 nM.

The values are drawn from BindingDB's records for doi:10.1021/jm800325y (National Taiwan University, 2008).
